Publication PMC3432061, “Biochemical and Mass Spectrometric Characterization of Human N-Acylethanolamine-Hydrolyzing Acid Amidase Inhibition” (PLoS ONE, 2012)

Assays:
hNAAA [1] = target: T1, hNAAA (Homo sapiens, UniProt Q02083); assay: 8 point radioactive assay, hydrolysis of [14C]N-palmitoylethanolamine by purified hNAAA; assay type: biochemical; details: 2 hours preincubation, PEA 25 µM
T1 construct: the active mature form of the enzyme is a heterodimer, consisting of a non-covalent complex of the α- and β-subunits; hexa-histidine (C); made in house; host or cells: HEK293 (stably transfected)
T1 sequence (Q02083 126-359 limits assumed): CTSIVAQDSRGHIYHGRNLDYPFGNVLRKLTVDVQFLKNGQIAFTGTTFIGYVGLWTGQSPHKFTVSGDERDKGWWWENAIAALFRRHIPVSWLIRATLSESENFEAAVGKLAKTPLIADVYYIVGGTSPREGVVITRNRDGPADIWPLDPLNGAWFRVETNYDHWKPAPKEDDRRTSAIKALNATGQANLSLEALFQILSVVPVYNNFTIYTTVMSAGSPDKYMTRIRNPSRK
T1 sequence (Q02083 29-125 limits assumed): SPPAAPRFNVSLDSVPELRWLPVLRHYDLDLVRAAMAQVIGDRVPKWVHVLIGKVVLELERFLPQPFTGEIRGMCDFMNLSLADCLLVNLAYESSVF
Method: (§1) To set up 8 point fluorescent and radioactive assays for each point, the compound in 45 µL DMSO and purified activated NAAA (final enzyme concentration of 0.25 µg/mL) in 810 µL of NAAA assay buffer were incubated for 2 hours in order for the covalent compounds to reach full inhibition. For the fluorescent assays, 190 µL of each of the above samples (in triplicate) were transferred to a 96 well plate, followed by addition of 10 µL of a PAMCA stock solution in DMSO for a final PAMCA concentration of 10 µM. After 5 minutes of agitation on a shaking plate, the reaction was allowed to proceed at 37°C for 30 minutes and enzyme activity was monitored and calculated as previously described. The complete description of the novel fluorescent 8 point assay to determine the IC50 value for compounds inhibiting hNAAA activity will be detailed elsewhere.
The 8 point radioactive assays, similar to that described by Saturnino et. al., [10] were performed by taking 95 µL of the enzyme-compound solution described above and adding a 5 µL solution of [^1,2 −14C]N-palmitoylethanolamine (10,000 c.p.m./sample) in DMSO, with a final PEA concentration of 25 µM. The reaction was performed for 30 minutes at 37°C and terminated by addition of 200 µL chloroform/methanol (1∶1, v/v). The aqueous layer containing the [^1,2 −14C]Ethanolamine was quantified by reading with a 1450 Microbeta Walluc Trilux Liquid Scintillation and Luminescence Counter. Inhibition constants were calculated using pro Fit software (Quantum Soft, Uetikon am See, Switzerland) and a Levenberg-Marquardt algorithm.

hNAAA [2] = target: T1, hNAAA; assay: Fluorometric assay to determine kinact/Ki for irreversible hNAAA inhibition; assay type: biochemical; details: for kinact: PAMCA 12.4 µM = 2×Km, no preincubation, read for 120 minutes; for kinact/K I: second order rate constant
Method: The k inact and K I values for covalent inhibitors were determined similar to Mileni et. al. […] The data for each inhibitor concentration ([I]) were fit to a first order equation (Eq. 1) shown below using KaleidaGraph (Synergy Software, Reading, PA) in order to determine k observed (k obs), where Ft is the fluorescence at time t, F 0 is the fluorescence at t = infinite time, F 1 is the total fluorescence change, and k obs is the first order rate constant for enzyme inactivation. To determine the inhibitor dissociation constant (K I) and the first order rate constant for enzyme inactivation at infinite inhibitor concentration (k inact), the k obs values for each [I] obtained above were fit to a curve using pro Fit software and a Levenberg-Marquardt algorithm according to Eq. 2, which simplifies to Eq. 3 at [S] = 2×K m as used in this experiment. [drawing 1] (1) [drawing 2] (2) [drawing 3] (3)

hNAAA [3] = target: T1, hNAAA; assay: MALDI-TOF MS and MS/MS analysis of tryptic digest of inhibitor treated hNAAA; details: 10-fold molar excess of compound, 37°C, 2 hours, pH 4.5
Method: To 10 µg (0.2 nmol) of purified and activated NAAA in 18 µL of 100 mM citrate-sodium phosphate buffer (pH 4.5) 2 µL of a DMSO solution containing 2 nmol of the compound of interest were added or 2 µL DMSO. The inhibitor and DMSO treated enzyme solutions were incubated at 37°C for 2 hours and then desalted prior to digestion. These were desalted by re-concentrating 3 times to original volume after 25 fold dilution with 50 mM ammonium bicarbonate buffer, pH 8.0, using 10 kDa membrane Ultra-0.5 Centrifugal Filters (Millipore). The NAAA samples were incubated overnight at 37°C with MS-grade trypsin (“Trypsin Gold”, Promega) at a NAAA:trypsin mass to mass ratio of 100∶1. The tryptic digested NAAA was analyzed immediately or frozen at −80°C for future analysis.
0.5 µL of the trypsin digested NAAA was mixed with 0.5 µL α-cyano-4-hydroxycinnaminic acid matrix solution (5 mg/mL dissolved in 50% acetonitrile, 50% water, and 0.1% trifluoroacetic acid) and spotted onto an Opti-TOF 384-well plate insert. MALDI-TOF MS spectra were acquired on a 4800 MALDI TOF/TOF mass spectrometer (Applied Biosystems, Foster City, CA) fitted with a 200-Hz solid state UV laser (wavelength 355 nm). The spectra of the peptides were acquired in reflectron mode. The conditions used for the MS experiments and instrument calibration were performed as described by Zvonok et. al.

hNAAA [4] = target: T1, hNAAA; assay: 8 point fluorescent assay, hydrolysis of PAMCA by purified hNAAA; assay type: biochemical; details: for IC50: purified hNAAA, 2 hours preincubation, fluorescent assay, PAMCA 10 µM
Method: We previously described the fluorogenic substrate N-(4-methyl coumarin)palmitamide (PAMCA), which is hydrolyzed by NAAA to the fluorescent compound 7-amino-4-methyl coumarin (AMC) and palmitic acid. For hNAAA inhibition we conducted three point concentration assays with compounds to determine their potencies and ranges of enzyme inhibition. Purified activated NAAA (final concentration of 0.25 µg/mL) was incubated in assay buffer made up to a total volume of 180 µL, followed by addition of the compound dissolved in 10 µL DMSO (along with DMSO neat for the control sample) with the final concentrations for each compound of 1, 10, and 100 µM, in triplicate on a 96 well plate. These samples were allowed to incubate for 15 min at room temperature and then 10 µL of a PAMCA stock solution in DMSO (final PAMCA concentration 10 µM) was added. After 5 minutes of agitation on a shaking plate, the reaction was allowed to proceed at 37°C for 30 minutes and enzyme activity was monitored and calculated as previously described.
as §1

FAAH = test system: FAAH; design: method as in PMID 22270809; details: cited from earlier work
hNAAA [5] = target: T1, hNAAA; assay: Rapid dilution experiment with hNAAA (reversibility); assay type: biochemical; details: AM6701: 100 nM for 120 min, twenty-fold dilution to 5 nM, up to 24 h
hMGL = target: T2, hMGL (Homo sapiens, UniProt Q99685); assay: hMGL inhibition (selectivity); assay type: biochemical
T2 sequence (Q99685 1-303): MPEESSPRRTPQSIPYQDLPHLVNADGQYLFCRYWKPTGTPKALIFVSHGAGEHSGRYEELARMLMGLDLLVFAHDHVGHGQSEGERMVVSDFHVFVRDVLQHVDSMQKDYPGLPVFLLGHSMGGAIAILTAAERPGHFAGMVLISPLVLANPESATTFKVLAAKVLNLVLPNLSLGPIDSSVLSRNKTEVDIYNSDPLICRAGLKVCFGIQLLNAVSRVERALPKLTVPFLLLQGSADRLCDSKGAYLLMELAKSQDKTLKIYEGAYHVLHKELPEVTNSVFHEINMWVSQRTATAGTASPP

hNAAA [6] = target: T1, hNAAA; assay: Lineweaver-Burk (double reciprocal) plot of hNAAA inhibition; assay type: biochemical
rFAAH = target: T3, rFAAH (Rattus norvegicus, UniProt P97612); assay: rFAAH inhibition (selectivity); assay type: biochemical
T3 sequence (P97612 1-579): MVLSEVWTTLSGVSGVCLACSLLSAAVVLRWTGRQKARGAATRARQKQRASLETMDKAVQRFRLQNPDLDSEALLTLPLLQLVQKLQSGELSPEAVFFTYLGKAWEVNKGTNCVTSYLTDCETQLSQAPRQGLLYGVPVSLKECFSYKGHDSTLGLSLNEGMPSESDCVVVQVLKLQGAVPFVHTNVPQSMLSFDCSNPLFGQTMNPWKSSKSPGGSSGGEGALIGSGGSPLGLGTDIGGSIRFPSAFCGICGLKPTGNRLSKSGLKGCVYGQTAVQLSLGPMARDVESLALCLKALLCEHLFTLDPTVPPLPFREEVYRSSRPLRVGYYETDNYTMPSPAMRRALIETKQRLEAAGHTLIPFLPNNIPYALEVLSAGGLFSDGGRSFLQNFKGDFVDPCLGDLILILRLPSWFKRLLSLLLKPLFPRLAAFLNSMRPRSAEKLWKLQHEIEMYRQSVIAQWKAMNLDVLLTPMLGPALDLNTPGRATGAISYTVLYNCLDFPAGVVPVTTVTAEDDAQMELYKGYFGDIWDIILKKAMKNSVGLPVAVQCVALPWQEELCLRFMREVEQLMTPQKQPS

recombinant rat NAAA = details: substrate heptadecenoylethanolamide, HEK293 cell lysate, LC/MS based assay; cited from earlier work
hNAAA [7] = target: T1, hNAAA; design: method as in PMID 22040171; details: substrate of hNAAA; cited from earlier work

| Compound | IC50 (hNAAA [1]) | kinact (hNAAA [2]) | kinact/K I (hNAAA [2]) | Covalent modification of hNAAA seen by MALDI-TOF MS of tryptic digest (hNAAA [3]) | Decrease of IC50 on extension of preincubation time to 120 min (hNAAA [4]; hNAAA, data not presented) | IC50 (hNAAA [4]) | IC50 (FAAH) | Recovery of enzyme activity after rapid dilution (hNAAA [5]) | IC50 (hMGL) | Type of inhibition (Lineweaver-Burk plot) (hNAAA [6]) | IC50 (rFAAH) | Effect of longer pre-incubation on IC50 (hNAAA [4]; hNAAA) | IC50 (recombinant rat NAAA) | Km (hNAAA [7]) |
| --- | --- | --- | --- | --- | --- | --- | --- | --- | --- | --- | --- | --- | --- | --- |
| CN(C)C(=O)n1nnc(Cc2ccc(-c3ccccc3)cc2)n1 [AM6701, 5-((biphenyl-4-yl)methyl)-N,N-dimethyl-2H-tetrazole-2-carboxamide] | 7.2 ± 2.5 nM | 0.0007 s⁻¹ | 55000 M⁻¹ s⁻¹ | carbamylation of the N-terminal cysteine | more than 50 fold | 7.7 ± 0.2 nM | 1.2 nM | no recovery of enzyme activity | – | – | – | – | – | – |
| CCCCCCCCCCCCCCCN=C=S [AM9023, 1-isothiocyanatopentadecane] | 600 ± 130 nM | – | – | identical | – | 350 ± 70 nM | – | fully recovered | > 10000 nM | competitive type inhibitor | > 10000 nM | unaffected | – | – |
| O=C(N[C@H]1COC1=O)OCc1ccccc1 [N-Cbz-serine β-lactone, N-Benzyloxycarbonyl-L-serine β-lactone, reference compound] | 1900 ± 500 nM | 0.000383 s⁻¹ | 290 M⁻¹ s⁻¹ | Cys126 modified by the inhibitor | – | 1700 ± 200 nM | – | slow regeneration of enzyme catalytic activity | – | – | – | – | 2960 ± 300 nM | – |
| CCCCCCCCCCCCCCCC(=O)Nc1ccc2c(C)cc(=O)oc2c1 [PAMCA, N-(4-methylcoumarin)palmitamide] | – | – | – | – | – | – | – | – | – | – | – | – | – | 6.2 µM |
| CCCCCCCCCCCCCCCC(=O)NCCO [PEA, N-palmitoylethanolamine] | – | – | – | – | – | – | – | – | – | – | – | – | – | 21 µM |
